Reference: PubChem BioAssay AID1259407 (Chemical Carcinogenesis Research Information System (CCRIS), 2018)
Calls of active or inactive are those of the source. How the calls were made is not given here.

Test system: CCRIS mutagenicity, Ames/micronucleus/aberration tests
Assay: CCRIS mutagenicity studies
[1] = Test System: AMES SALMONELLA TYPHIMURIUM, Strain/Indicator: TA98, Metabolic Activation: NONE, Method: STANDARD PLATE
[2] = Test System: AMES SALMONELLA TYPHIMURIUM, Strain/Indicator: TA98, Metabolic Activation: RAT, LIVER, S-9, AROCLOR 1254, Method: STANDARD PLATE
[3] = Test System: AMES SALMONELLA TYPHIMURIUM, Strain/Indicator: TA100, Metabolic Activation: NONE, Method: STANDARD PLATE
[4] = Test System: AMES SALMONELLA TYPHIMURIUM, Strain/Indicator: TA100, Metabolic Activation: RAT, LIVER, S-9, AROCLOR 1254, Method: STANDARD PLATE
[5] = Test System: MOUSE LYMPHOMA, Strain/Indicator: L5178Y (TK+/TK-), Metabolic Activation: NONE, Method: SUSPENSION/PLATE
[6] = Test System: MOUSE LYMPHOMA, Strain/Indicator: L5178Y (TK+/TK-), Metabolic Activation: RAT, LIVER, S-9, AROCLOR 1254, Method: SUSPENSION/PLATE
[7] = Test System: AMES SALMONELLA TYPHIMURIUM, Strain/Indicator: TA100, Metabolic Activation: NONE, Method: PREINCUBATION
[8] = Test System: AMES SALMONELLA TYPHIMURIUM, Strain/Indicator: TA98, Metabolic Activation: RAT, LIVER, S-9, PHENOBARBITAL, Method: STANDARD PLATE
[9] = Test System: AMES SALMONELLA TYPHIMURIUM, Strain/Indicator: TA100, Metabolic Activation: RAT, LIVER, S-9, PHENOBARBITAL, Method: STANDARD PLATE

Measured: mutagenic call

CN(CCO)C(=O)Nc1ccccc1
inactive: [1] inactive; negative | [2] inactive; negative | [3] inactive; negative | [4] inactive; negative | Test System: AMES SALMONELLA TYPHIMURIUM, Strain/Indicator: TA1535, Metabolic Activation: NONE, Method: STANDARD PLATE inactive; negative | Test System: AMES SALMONELLA TYPHIMURIUM, Strain/Indicator: TA1535, Metabolic Activation: RAT, LIVER, S-9, AROCLOR 1254, Method: STANDARD PLATE inactive; negative | Test System: AMES SALMONELLA TYPHIMURIUM, Strain/Indicator: TA1537, Metabolic Activation: NONE, Method: STANDARD PLATE inactive; negative | Test System: AMES SALMONELLA TYPHIMURIUM, Strain/Indicator: TA1537, Metabolic Activation: RAT, LIVER, S-9, AROCLOR 1254, Method: STANDARD PLATE inactive; negative | Test System: AMES SALMONELLA TYPHIMURIUM, Strain/Indicator: TA1538, Metabolic Activation: NONE, Method: STANDARD PLATE inactive; negative | Test System: AMES SALMONELLA TYPHIMURIUM, Strain/Indicator: TA1538, Metabolic Activation: RAT, LIVER, S-9, AROCLOR 1254, Method: STANDARD PLATE inactive; negative

Nc1nccs1
active: Test System: AMES SALMONELLA TYPHIMURIUM, Strain/Indicator: TA98, Metabolic Activation: RAT, LIVER, S-9, AROCLOR 1254, HAMSTER, LIVER, S-9, AROCLOR 1254, Method: STANDARD PLATE active; positive | Test System: AMES SALMONELLA TYPHIMURIUM, Strain/Indicator: TA1538, Metabolic Activation: RAT, LIVER, S-9, AROCLOR 1254, HAMSTER, LIVER, S-9, AROCLOR 1254, Method: STANDARD PLATE active; positive | [5] active; positive. reevaluation of results: equivocal | [6] active; positive. reevaluation of results: equivocal

O=NSCCO
active: [7] active; positive

O=c1c2c(O)cccc2oc2cc3c(c(O)c12)[C@@H]1C=CO[C@@H]1O3
inactive: [8] inactive; negative | [9] inactive; negative

N=C(N)c1ccc(-c2cc3ccc(C(=N)N)cc3[nH]2)cc1
inactive: [1] inactive; negative | [8] inactive; negative | [3] inactive; negative | [9] inactive; negative | Test System: E. COLI, Strain/Indicator: WP2, Metabolic Activation: NONE, Method: PREINCUBATION inactive; negative

O=CN(O)c1ccc(Oc2ccc(Cl)cc2Cl)cc1
inactive: [3] inactive; negative
active: Test System: AMES SALMONELLA TYPHIMURIUM, Strain/Indicator: TA100, Metabolic Activation: RAT, LIVER, S-9, KANECLOR 500, Method: STANDARD PLATE active; positive

COc1c(Cl)ccc(Cl)c1C(=O)O
inactive: Test System: AMES SALMONELLA TYPHIMURIUM, Strain/Indicator: TA97, Metabolic Activation: NONE, Method: STANDARD PLATE inactive; negative | Test System: AMES SALMONELLA TYPHIMURIUM, Strain/Indicator: TA97, Metabolic Activation: RAT, LIVER, S-9, AROCLOR 1254, Method: STANDARD PLATE inactive; negative | [1] inactive; negative | [2] inactive; negative | [3] inactive; negative | [4] inactive; negative | Test System: AMES SALMONELLA TYPHIMURIUM, Strain/Indicator: TA102, Metabolic Activation: NONE, Method: STANDARD PLATE inactive; negative | Test System: AMES SALMONELLA TYPHIMURIUM, Strain/Indicator: TA102, Metabolic Activation: RAT, LIVER, S-9, AROCLOR 1254, Method: STANDARD PLATE inactive; negative | Test System: UDS HUMAN LYMPHOCYTES, Strain/Indicator: THY INCORP (NON-S-PHASE), Metabolic Activation: NONE, Method: LIQUID SCINTILLATION COUNTING inactive; negative
active: Test System: UDS HUMAN LYMPHOCYTES, Strain/Indicator: THY INCORP (NON-S-PHASE), Metabolic Activation: RAT, LIVER, S-9, Method: LIQUID SCINTILLATION COUNTING active; positive

Cc1cc2cccc3ccc4cc5ccccc5c1c4c32
active: Test System: AMES SALMONELLA TYPHIMURIUM, Strain/Indicator: TA100, Metabolic Activation: RAT, INTACT HEPATOCYTES, AROCLOR 1254, Method: PREINCUBATION active; positive | Test System: AMES SALMONELLA TYPHIMURIUM, Strain/Indicator: TA100, Metabolic Activation: RAT, NADPH-FORTIFIED HOMOGENIZED HEPATOCYTES, AROCLOR 1254, Method: PREINCUBATION active; positive

CC1CCOB(OCCC(C)OB2OCCC(C)O2)O1 (stereo not given)
inactive: [5] inactive; negative. reevaluation of results: negative | [6] inactive; negative. reevaluation of results: negative

Cc1ccccc1C=O
inactive: Test System: AMES SALMONELLA TYPHIMURIUM, Strain/Indicator: TA97, Metabolic Activation: HAMSTER, LIVER, S-9, AROCLOR 1254 (10 OR 30%), Method: PREINCUBATION inactive; negative | Test System: AMES SALMONELLA TYPHIMURIUM, Strain/Indicator: TA97, Metabolic Activation: NONE, Method: PREINCUBATION inactive; negative | Test System: AMES SALMONELLA TYPHIMURIUM, Strain/Indicator: TA97, Metabolic Activation: RAT, LIVER, S-9, AROCLOR 1254 (10 OR 30%), Method: PREINCUBATION inactive; negative | Test System: AMES SALMONELLA TYPHIMURIUM, Strain/Indicator: TA98, Metabolic Activation: HAMSTER, LIVER, S-9, AROCLOR 1254 (10 OR 30%), Method: PREINCUBATION inactive; negative | Test System: AMES SALMONELLA TYPHIMURIUM, Strain/Indicator: TA98, Metabolic Activation: NONE, Method: PREINCUBATION inactive; negative | Test System: AMES SALMONELLA TYPHIMURIUM, Strain/Indicator: TA98, Metabolic Activation: RAT, LIVER, S-9, AROCLOR 1254 (10 OR 30%), Method: PREINCUBATION inactive; negative | Test System: AMES SALMONELLA TYPHIMURIUM, Strain/Indicator: TA100, Metabolic Activation: HAMSTER, LIVER, S-9, AROCLOR 1254 (10 OR 30%), Method: PREINCUBATION inactive; negative | [7] inactive; negative | Test System: AMES SALMONELLA TYPHIMURIUM, Strain/Indicator: TA100, Metabolic Activation: RAT, LIVER, S-9, AROCLOR 1254 (10 OR 30%), Method: PREINCUBATION inactive; negative | Test System: AMES SALMONELLA TYPHIMURIUM, Strain/Indicator: TA1535, Metabolic Activation: HAMSTER, LIVER, S-9, AROCLOR 1254 (10 OR 30%), Method: PREINCUBATION inactive; negative | Test System: AMES SALMONELLA TYPHIMURIUM, Strain/Indicator: TA1535, Metabolic Activation: NONE, Method: PREINCUBATION inactive; negative | Test System: AMES SALMONELLA TYPHIMURIUM, Strain/Indicator: TA1535, Metabolic Activation: RAT, LIVER, S-9, AROCLOR 1254 (10 OR 30%), Method: PREINCUBATION inactive; negative | Test System: AMES SALMONELLA TYPHIMURIUM, Strain/Indicator: TA1537, Metabolic Activation: HAMSTER, LIVER, S-9, AROCLOR 1254 (10 OR 30%), Method: PREINCUBATION inactive; negative | Test System: AMES SALMONELLA TYPHIMURIUM, Strain/Indicator: TA1537, Metabolic Activation: NONE, Method: PREINCUBATION inactive; negative | Test System: AMES SALMONELLA TYPHIMURIUM, Strain/Indicator: TA1537, Metabolic Activation: RAT, LIVER, S-9, AROCLOR 1254 (10%), Method: PREINCUBATION inactive; negative

Cn1c(N)nc2c3cnccc3ccc21
active: [2] active; positive

NC(=O)N/N=C/c1ccco1
active: Test System: E. COLI, Strain/Indicator: WP2 UVRA, Metabolic Activation: NONE, Method: SPOT active; positive
